Results from patent publication US12263181B2, “Phospholipid compositions” (MACHAVERT PHARMACEUTICALS LLC, priority 2016, dated 2025).

Experiments:
[1] = tested on: human pancreatic carcinoma cell line (Capan-2); test: In vivo tumor growth inhibition, Capan-2 xenograft in nude mice; settings: oral, 0.1 mL of a 30% (w/w) solution in sunflower oil once a day for 42 days
Method: In vivo measurements of tumor growth inhibition in mice were conducted to determine efficacy of BAP(+), BAP(−), and fractions thereof. A human pancreatic carcinoma cell line (Capan-2 available from European Collection of Cell Cultures, Salisbury UK) was cultivated at 37° C. in a humidified 5% CO2/95% air atmosphere using high glucose D-MEM medium supplemented with 20% fetal bovine serum, 2% penicillin/streptomycin and 1.25% L-glutamine. Before application, cells were harvested by trypsinisation for 30 minutes. Harvested Capan-2 cells were administered subcutaneously to each mouse as 1×10^7 cells in a mixture with a basement membrane preparation (BD MATRIGEL, available from I.T.A.-Interact, Prague CZ). Administration was in the rear right flank of Hsd:athymic nude-Fox n1nu mice (available from Anlab, Prague CZ). […]
Table 12 gives the percentage of tumor weight growth inhibition (% WGI) as compared to the control for various BAP mixtures including BAP(−), BAP(+), pooled fractions F1-F4, F5, a fraction comprising a pooled collection of the F5 sub-fractions enriched in more PCs comprising saturated fatty acids acyl residues (“F5A”), a fraction which comprising a pooled collection of F5 sub-fractions enriched in more PCs comprising unsaturated fatty acid acyl residues (“F5B”), and a fraction of BAP(+) possibly enriched in LPC's (“F5C”). Glycerophosphocholine (GPC) was also evaluated. […]

SPHK1 kinase = molecular target: T1, SPHK1 kinase (Homo sapiens, UniProt Q9NYA1); test: FRET-peptide kinase inhibition (SELECTSCREEN Kinase Profiling Service); type: biochemical; settings: 10 μM solution, ATP at Km
T1 construct: purchased Life Technologies
Method: (§1) Inhibition of various kinases was measured using fluorescence resonance energy transfer (FRET) analysis. Briefly, a kinase is used to transfer the γ-phosphate of ATP to a single tyrosine, serine, or threonine residue in a synthetic FRET-peptide in the presence of each tested fraction. A kinase inhibitor will prevent phosphorylation. FRET-peptides comprise a donor fluorophore and an acceptor fluorophore, where the acceptor fluorophore will only undergo fluorescence from the excitation wavelength of the donor fluorophore due to resonant energy transfer through the peptide. A development reagent is used to cleave the un-phosphorylated FRET-peptides. An uncleaved FRET-peptide (i.e., phosphorylated peptide) will therefore undergo measureable FRET of both acceptor and donor and be indicative of kinase inhibition. […] Because phosphorylation of FRET-peptides suppresses cleavage by the development reagent, calculation of the ratio of donor emission to acceptor emission after excitation of the donor fluorophore at approximately 400 nm is used to quantitate reaction progress. Low ratios indicate the FRET-peptide is phosphorylated (i.e., little kinase inhibition) and high ratios […] (i.e., kinase inhibition). The percent phosphorylation can therefore be calculated from the emission ratio based on controls for the maximum and minimum phosphorylation. The percent inhibition can be calculated based on the percent phosphorylation of a sample with each fraction as compared to the percent phosphorylation without each fraction.
(§2) The kinase inhibitory activity of various 10 μM solutions of various fractions was measured using the SELECTSCREEN Kinase Profiling Service available from Life Technologies. Unless otherwise indicated, the concentration of ATP in each well is the Michaelis-Menten constant (Km value-the concentration of ATP when the phosphorylation reaction velocity is equal half of the maximal velocity for the reaction). […] Z′ is a measure of statistical effect size to assess the quality of the assay. Z′>0.5 is indicative measurement separated from the background and a reliable assay result. The average % inhibition is representative of two independent measurements.

mTOR kinase = molecular target: T2, mTOR kinase (Homo sapiens, UniProt P42345); test: as above; type: biochemical; settings: kinase FRAP1 (mTOR); 10 μM solution; ATP at Km
T2 construct: purchased Life Technologies
Method: as §1, §2

various kinases [2] = molecular target: T3, various kinases (Homo sapiens, UniProt O14965); test: as above; type: biochemical; settings: kinase AURKA (Aurora A); 10 μM solution; ATP at Km
T3 construct: purchased Life Technologies
T3 sequence (O14965 1-403): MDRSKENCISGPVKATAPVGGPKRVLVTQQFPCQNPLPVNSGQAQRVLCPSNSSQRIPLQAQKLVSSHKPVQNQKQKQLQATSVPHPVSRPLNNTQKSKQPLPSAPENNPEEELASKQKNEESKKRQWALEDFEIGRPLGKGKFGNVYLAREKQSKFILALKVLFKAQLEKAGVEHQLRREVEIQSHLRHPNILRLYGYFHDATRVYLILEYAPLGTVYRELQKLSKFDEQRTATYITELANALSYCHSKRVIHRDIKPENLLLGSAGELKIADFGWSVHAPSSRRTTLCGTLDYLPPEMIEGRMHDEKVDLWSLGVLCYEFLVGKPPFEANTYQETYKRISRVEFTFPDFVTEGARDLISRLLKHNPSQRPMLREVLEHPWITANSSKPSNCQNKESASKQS
Method: as §1, §2

various kinases [3] = molecular target: T4, various kinases (Homo sapiens, UniProt P41279); test: as above; type: biochemical; settings: kinase MAP3K8 (COT); 10 μM solution; ATP concentration of 100 μM
T4 construct: purchased Life Technologies
Method: as §1, §2

various kinases [4] = molecular target: T5, various kinases (Homo sapiens, UniProt P48736); test: as above; type: biochemical; settings: kinase PIK3CG (p110 gamma); 10 μM solution; ATP at Km
T5 construct: purchased Life Technologies
Method: as §1, §2

various kinases [5] = molecular target: T6, various kinases (Homo sapiens, UniProt Q8TF76); test: as above; type: biochemical; settings: kinase GSG2 (Haspin); 10 μM solution; ATP at Km
T6 construct: purchased Life Technologies
T6 sequence (Q8TF76 1-798): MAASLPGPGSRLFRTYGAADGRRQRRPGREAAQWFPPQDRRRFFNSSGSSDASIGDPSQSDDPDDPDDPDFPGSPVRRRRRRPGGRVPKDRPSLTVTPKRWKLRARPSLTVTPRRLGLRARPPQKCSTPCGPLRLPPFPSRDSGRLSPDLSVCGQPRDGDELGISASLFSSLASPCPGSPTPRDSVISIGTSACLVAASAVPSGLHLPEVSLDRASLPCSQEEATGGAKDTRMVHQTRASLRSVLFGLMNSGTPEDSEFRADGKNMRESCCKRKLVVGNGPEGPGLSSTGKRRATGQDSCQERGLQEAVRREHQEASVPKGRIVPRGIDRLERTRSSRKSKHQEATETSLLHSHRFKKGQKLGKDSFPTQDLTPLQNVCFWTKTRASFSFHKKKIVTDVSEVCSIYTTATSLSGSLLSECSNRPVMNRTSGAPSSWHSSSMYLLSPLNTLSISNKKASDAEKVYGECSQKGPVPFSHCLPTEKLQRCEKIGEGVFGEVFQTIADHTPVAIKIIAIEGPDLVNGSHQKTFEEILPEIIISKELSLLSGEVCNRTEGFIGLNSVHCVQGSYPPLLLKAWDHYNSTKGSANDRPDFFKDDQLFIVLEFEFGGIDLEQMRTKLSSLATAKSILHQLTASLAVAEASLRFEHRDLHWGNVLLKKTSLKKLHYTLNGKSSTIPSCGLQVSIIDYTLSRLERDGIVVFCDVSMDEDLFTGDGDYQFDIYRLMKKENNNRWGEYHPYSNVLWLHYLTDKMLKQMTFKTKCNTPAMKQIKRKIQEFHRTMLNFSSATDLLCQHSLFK
Method: as §1, §2

various kinases [6] = molecular target: T7, various kinases (Homo sapiens, UniProt Q96GD4); test: as above; type: biochemical; settings: kinase AURKB (Aurora B); 10 μM solution; ATP at Km
T7 construct: purchased Life Technologies
Method: as §1, §2

ABL1 M351T = molecular target: T8, ABL1 M351T (Homo sapiens, UniProt P00519, M351T); test: LANTHASCREEN Eu Kinase Binding Assay; settings: 10 μM solutions, two independent measurements
T8 construct: purchased Life Technologies
Method: (§3) Measurement of inhibition of various kinases was also performed by binding a tracer to a kinase and the addition of Europium labeled anti-tag antibodies. When bound to the same kinase, the tracer and Europium interact through FRET and fluoresce. Binding of the tracer and antibody to a kinase results in a high degree of FRET, whereas displacement of the tracer with a kinase inhibitor results in a loss of FRET. This method of measurement removes the cleavage step necessary in the above FRET measurement.
(§4) The kinase inhibitory activity of various 10 μM solutions of various fractions was measured (LANTHASCREEN Eu Kinase Binding Assay Profiling Service available from Life Technologies). In these measurements, greater percent displacement indicates greater kinase inhibition. […] The average % displacement is representative of two independent measurements.

ALK C1156Y = molecular target: T9, ALK C1156Y (Homo sapiens, UniProt Q9UM73, C1156Y); test: LANTHASCREEN Eu Kinase Binding Assay; settings: 10 μM solutions, two independent measurements
T9 construct: purchased Life Technologies
Method: as §3, §4

EGFR (ErbB1) d746-750 = molecular target: T10, EGFR (ErbB1) d746-750 (Homo sapiens, UniProt P00533, DEL746-750); test: LANTHASCREEN Eu Kinase Binding Assay; settings: 10 μM solutions, two independent measurements
T10 construct: purchased Life Technologies
Method: as §3, §4

KIT D816H = molecular target: T11, KIT D816H (Homo sapiens, UniProt P10721, D816H); test: LANTHASCREEN Eu Kinase Binding Assay; settings: 10 μM solutions, two independent measurements
T11 construct: purchased Life Technologies
Method: as §3, §4

KIT N822K = molecular target: T12, KIT N822K (Homo sapiens, UniProt P10721, N822K); test: LANTHASCREEN Eu Kinase Binding Assay; settings: 10 μM solutions, two independent measurements
T12 construct: purchased Life Technologies
Method: as §3, §4

KIT Y823D = molecular target: T13, KIT Y823D (Homo sapiens, UniProt P10721, Y823D); test: LANTHASCREEN Eu Kinase Binding Assay; settings: 10 μM solutions, two independent measurements
T13 construct: purchased Life Technologies
Method: as §3, §4

TTK = molecular target: T14, TTK (Homo sapiens, UniProt P33981); test: LANTHASCREEN Eu Kinase Binding Assay; settings: 10 μM solutions, two independent measurements
T14 construct: purchased Life Technologies
T14 sequence (P33981 1-857): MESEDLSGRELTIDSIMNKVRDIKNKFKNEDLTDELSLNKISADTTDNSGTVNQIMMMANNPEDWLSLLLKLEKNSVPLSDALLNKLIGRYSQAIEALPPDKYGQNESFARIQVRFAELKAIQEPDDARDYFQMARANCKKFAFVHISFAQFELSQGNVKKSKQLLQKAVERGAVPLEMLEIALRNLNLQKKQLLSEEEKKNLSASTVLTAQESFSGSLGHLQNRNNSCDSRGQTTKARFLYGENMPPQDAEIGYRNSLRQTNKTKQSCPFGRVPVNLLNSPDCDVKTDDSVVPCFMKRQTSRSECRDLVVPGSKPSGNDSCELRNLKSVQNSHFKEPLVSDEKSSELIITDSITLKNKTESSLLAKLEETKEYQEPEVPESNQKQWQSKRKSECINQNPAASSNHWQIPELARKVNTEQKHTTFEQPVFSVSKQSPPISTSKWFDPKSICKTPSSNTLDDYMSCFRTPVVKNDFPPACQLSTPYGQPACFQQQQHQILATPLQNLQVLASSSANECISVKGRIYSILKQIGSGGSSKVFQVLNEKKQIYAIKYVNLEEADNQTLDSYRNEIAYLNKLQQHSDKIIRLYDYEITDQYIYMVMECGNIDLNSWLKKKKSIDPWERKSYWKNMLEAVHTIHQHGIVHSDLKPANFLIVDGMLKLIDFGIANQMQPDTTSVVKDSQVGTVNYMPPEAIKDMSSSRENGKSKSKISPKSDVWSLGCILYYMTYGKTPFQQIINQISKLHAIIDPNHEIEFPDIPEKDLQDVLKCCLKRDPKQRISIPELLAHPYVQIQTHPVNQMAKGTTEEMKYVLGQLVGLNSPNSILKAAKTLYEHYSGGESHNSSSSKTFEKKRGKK
Method: as §3, §4

WEE1 = molecular target: T15, WEE1 (Homo sapiens, UniProt P30291); test: LANTHASCREEN Eu Kinase Binding Assay; settings: 10 μM solutions, two independent measurements
T15 construct: purchased Life Technologies
Method: as §3, §4

T7 sequence (Q96GD4 whole entry): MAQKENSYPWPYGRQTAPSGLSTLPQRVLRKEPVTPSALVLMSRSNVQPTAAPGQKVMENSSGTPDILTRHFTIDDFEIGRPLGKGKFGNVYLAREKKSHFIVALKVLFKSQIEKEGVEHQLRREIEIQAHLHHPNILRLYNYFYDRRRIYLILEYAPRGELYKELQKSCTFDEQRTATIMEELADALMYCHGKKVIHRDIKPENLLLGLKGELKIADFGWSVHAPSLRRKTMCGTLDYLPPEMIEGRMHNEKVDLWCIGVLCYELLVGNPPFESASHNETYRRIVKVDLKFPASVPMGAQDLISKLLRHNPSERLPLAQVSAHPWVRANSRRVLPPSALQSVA
T4 sequence (P41279 whole entry): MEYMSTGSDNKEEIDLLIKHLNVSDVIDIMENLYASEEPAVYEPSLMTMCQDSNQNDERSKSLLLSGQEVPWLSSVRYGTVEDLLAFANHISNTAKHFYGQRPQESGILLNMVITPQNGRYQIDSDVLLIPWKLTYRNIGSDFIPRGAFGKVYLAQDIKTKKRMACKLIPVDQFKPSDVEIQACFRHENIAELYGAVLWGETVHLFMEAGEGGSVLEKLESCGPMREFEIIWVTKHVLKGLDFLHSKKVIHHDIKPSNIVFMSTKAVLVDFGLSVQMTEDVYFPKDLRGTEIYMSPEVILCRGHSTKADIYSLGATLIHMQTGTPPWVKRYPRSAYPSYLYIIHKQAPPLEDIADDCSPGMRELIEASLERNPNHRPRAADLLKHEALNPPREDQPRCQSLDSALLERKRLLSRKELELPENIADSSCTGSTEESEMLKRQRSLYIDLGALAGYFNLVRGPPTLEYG
T1 sequence (Q9NYA1 whole entry): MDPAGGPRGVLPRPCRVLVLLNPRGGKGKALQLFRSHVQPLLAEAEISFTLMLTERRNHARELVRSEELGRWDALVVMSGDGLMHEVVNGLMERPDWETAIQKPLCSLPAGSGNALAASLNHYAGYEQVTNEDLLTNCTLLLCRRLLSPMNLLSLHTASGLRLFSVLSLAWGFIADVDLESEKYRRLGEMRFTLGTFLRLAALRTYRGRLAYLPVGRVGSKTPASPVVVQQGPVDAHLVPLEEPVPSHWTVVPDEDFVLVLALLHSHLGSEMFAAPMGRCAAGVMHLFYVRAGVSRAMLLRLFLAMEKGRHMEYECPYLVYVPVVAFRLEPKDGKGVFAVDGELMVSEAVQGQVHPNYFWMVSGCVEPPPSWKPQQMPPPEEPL
T10 sequence (P00533 with tags, fused parts or gaps DEL746-750 limits assumed): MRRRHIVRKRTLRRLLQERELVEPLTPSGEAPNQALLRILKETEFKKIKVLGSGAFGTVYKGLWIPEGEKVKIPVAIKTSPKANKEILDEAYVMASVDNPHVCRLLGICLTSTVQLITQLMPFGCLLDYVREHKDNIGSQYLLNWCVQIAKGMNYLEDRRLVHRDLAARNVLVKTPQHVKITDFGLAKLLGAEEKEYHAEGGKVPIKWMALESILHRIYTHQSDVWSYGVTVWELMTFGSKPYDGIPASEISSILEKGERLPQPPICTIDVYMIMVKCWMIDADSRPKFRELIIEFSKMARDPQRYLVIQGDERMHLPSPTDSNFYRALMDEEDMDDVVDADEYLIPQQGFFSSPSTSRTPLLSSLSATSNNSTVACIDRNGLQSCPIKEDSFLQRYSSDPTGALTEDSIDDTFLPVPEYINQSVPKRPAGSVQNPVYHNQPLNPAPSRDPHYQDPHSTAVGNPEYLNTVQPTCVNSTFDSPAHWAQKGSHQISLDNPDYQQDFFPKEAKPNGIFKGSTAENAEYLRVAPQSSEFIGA
T12 sequence (P10721 26-976 N822K): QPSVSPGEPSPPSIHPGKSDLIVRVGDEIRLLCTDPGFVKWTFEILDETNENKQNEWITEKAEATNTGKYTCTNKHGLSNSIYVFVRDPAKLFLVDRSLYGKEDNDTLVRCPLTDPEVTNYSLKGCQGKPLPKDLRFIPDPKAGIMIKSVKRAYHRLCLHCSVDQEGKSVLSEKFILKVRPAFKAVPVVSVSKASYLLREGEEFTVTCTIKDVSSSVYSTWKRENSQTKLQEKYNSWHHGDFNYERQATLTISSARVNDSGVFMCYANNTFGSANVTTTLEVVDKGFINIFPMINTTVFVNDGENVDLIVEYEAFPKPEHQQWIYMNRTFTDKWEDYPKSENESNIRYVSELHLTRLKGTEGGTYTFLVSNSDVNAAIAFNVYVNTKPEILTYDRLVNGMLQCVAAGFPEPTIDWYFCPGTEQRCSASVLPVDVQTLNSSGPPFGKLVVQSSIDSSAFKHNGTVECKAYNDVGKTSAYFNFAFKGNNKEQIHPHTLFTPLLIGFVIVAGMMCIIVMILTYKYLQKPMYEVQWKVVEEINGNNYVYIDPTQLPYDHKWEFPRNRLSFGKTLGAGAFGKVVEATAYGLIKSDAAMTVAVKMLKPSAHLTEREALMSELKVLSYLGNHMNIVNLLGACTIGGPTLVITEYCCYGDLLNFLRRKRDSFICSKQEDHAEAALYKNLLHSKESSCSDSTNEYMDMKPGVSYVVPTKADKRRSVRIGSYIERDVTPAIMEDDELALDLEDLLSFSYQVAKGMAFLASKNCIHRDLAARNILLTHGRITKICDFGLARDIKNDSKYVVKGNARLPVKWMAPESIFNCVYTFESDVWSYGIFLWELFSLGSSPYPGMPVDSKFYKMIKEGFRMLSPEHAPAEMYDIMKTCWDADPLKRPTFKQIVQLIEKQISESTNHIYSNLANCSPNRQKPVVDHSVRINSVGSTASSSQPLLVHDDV
T5 sequence (P48736 whole entry): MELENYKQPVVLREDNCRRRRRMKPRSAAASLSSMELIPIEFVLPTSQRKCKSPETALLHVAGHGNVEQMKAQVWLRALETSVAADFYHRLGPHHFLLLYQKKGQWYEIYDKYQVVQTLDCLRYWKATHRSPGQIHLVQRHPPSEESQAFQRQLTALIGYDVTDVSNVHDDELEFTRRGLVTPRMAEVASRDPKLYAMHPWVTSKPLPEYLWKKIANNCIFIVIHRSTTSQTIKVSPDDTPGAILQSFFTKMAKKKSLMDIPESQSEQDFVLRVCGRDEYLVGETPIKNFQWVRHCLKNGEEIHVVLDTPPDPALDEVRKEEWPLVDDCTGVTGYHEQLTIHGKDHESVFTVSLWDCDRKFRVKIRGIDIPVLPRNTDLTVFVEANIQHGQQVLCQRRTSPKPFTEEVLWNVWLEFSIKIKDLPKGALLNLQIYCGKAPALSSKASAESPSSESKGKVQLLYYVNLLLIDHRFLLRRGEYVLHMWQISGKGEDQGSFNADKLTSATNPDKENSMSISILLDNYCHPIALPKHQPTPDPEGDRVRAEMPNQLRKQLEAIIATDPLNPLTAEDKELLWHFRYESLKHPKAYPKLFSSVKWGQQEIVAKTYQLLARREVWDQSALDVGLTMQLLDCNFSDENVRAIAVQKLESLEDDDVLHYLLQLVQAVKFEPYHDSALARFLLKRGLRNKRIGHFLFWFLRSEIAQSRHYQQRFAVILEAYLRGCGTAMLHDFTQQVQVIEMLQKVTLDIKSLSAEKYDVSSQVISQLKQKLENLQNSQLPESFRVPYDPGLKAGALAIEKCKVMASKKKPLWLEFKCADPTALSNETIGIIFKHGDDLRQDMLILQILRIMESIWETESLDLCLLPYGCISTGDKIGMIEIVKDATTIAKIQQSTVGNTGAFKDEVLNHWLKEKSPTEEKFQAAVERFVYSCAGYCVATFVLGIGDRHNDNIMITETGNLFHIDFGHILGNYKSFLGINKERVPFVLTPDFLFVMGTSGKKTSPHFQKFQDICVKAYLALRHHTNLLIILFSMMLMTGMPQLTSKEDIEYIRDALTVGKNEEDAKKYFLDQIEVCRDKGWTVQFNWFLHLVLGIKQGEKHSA
T13 sequence (P10721 26-976 Y823D): as the sequence (P10721 26-976 N822K) above, with K797N, Y798D counted along it
T11 sequence (P10721 26-976 D816H): as the sequence (P10721 26-976 N822K) above, with D791H, K797N counted along it
T15 sequence (P30291 whole entry): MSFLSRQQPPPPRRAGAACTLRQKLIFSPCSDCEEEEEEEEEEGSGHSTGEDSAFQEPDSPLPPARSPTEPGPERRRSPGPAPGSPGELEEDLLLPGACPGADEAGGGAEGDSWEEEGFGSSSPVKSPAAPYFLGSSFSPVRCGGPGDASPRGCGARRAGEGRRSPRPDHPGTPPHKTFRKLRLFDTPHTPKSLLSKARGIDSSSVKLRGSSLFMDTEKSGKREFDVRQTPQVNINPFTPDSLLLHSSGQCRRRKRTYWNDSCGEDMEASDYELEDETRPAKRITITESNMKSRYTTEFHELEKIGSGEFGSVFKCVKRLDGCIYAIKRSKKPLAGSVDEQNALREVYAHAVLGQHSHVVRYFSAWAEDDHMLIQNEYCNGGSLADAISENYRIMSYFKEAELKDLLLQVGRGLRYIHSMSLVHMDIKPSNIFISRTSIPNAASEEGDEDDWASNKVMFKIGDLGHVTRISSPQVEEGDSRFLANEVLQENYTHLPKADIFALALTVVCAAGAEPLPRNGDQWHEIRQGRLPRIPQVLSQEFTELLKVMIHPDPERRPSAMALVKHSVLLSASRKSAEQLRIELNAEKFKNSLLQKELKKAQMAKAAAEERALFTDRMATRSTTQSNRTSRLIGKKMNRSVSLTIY

C[N+](C)(C)CCOP(=O)([O-])OC[C@H](O)CO [GPC, glycerophosphocholine]
% WGI (percentage of tumor weight growth inhibition as compared to the control) [1]: −41.9% | Average % Inhibition (SPHK1 kinase): −5% | Average % Inhibition (mTOR kinase): −1% | Average % Inhibition (various kinases [2]): 22% | Average % Inhibition (various kinases [3]): 7% | Average % Inhibition (various kinases [4]): 2% | Average % Inhibition (various kinases [5]): 14% | Average % Inhibition (various kinases [6]): 13% | Average % Displacement (ABL1 M351T): 4% | Average % Displacement (ALK C1156Y): 4% | Average % Displacement (EGFR (ErbB1) d746-750): −1% | Average % Displacement (KIT D816H): 1% | Average % Displacement (KIT N822K): −1% | Average % Displacement (KIT Y823D): 2% | Average % Displacement (TTK): 24% | Average % Displacement (WEE1): 5%
